Test results: patent US11993563B2, “Solid compositions of cocrystals of cannabinoids” (priority 2018, dated 2024)

Legend:
[1] = Stability of the cocrystal on heating (DSC experiments); format: physicochemical
Method: The cocrystal Form VII of the present invention may also be further characterized by DSC (differential scanning calorimetry) analysis as shown in FIG. 15. […] The cocrystal Form VII of the present invention may also be further characterized by having a melting range of about 109-120° C.
The cocrystal Form XVIII of the present invention may also be further characterized by DSC (differential scanning calorimetry) analysis as shown in FIG. 35.
The cocrystal Form XIX of the present invention may also be further characterized by DSC (differential scanning calorimetry) analysis as shown in FIG. 37.
DSC analyses were recorded with a Mettler Toledo DSC2. For cocrystals Forms […], and XI-XIX, the sample was weighed into a 40 μL aluminium crucible with a pinhole lid and was heated from 25 to 300° C. at a rate of 10° C./min, under nitrogen (50 mL/min). For cocrystals Form VII and VIII, the sample was weighed into a 40 μL aluminium crucible with a pinhole lid and was heated from 25 to 150° C. at a rate of 10° C./min, under nitrogen (50 mL/min).

[2] = open vial, accelerated stability conditions 40° C. and 75±5% relative humidity
Method: (§1) X-ray power Diffraction (XRPD) measurements were performed at ambient conditions on a PANalytical X'Pert PRO θ-θ diffractometer of 240 mm of radius in reflection geometry, equipped with Cu Kα radiation and a PIXcel detector, operated at 45 kV and 40 mA. Each sample was mounted on a zero-background silicon holder and allowed to spin at 0.25 rev/s during the data collection.
The aim of the study is to evaluate the stability of cocrystal Form I of the present invention.
Cocrystal Form I (55 mg) is stored in an open vial and exposed to accelerated stability conditions (40° C. and 75±5% relative humidity) according to ICH guidelines (Guidance for Industry Q1A(R2) Stability Testing of New Drug Substances and Products—available on the website http://www.ich.org/products/guidelines/quality/quality-single/article/stability-testing-of-new-drug-substances-and-products.html on Aug. 4, 2017).

[3] = in tablet
Method: as §1

SMILES | remained stable after heating up to [1] | stability according to XRPD [2] | integrity of the cocrystal after its formulation (XRPD of the tablet) [3]
C=C(C)[C@@H]1CCC(C)=C[C@H]1c1c(O)cc(CCC)cc1O [Form XVIII, cocrystal wherein the cannabinoid is CBDV and L-proline] | up to 90 °C |  | 
C=C(C)[C@@H]1CCC(C)=C[C@H]1c1c(O)cc(CCC)cc1O [Form XIX, cocrystal wherein the cannabinoid is CBDV and L-carnitine] | up to 110 °C |  | 
C=C(C)[C@@H]1CCC(C)=C[C@H]1c1c(O)cc(CCCCC)cc1O [Form I, cocrystal of CBD and L-proline] |  | remained stable for at least three weeks | maintained its integrity
CCCCCc1cc(O)c2c(c1)OC(C)(C)[C@@H]1CCC(C)=C[C@@H]21 [Form VII, cocrystal of (−)-(6aR,10aR)-6,6,9-trimethyl-3-pentyl-6a,7,8,10a-tetrahydro-6H-benzo[c]chromen-I-ol and L-proline] | up to 75 °C |  | maintained its integrity
